# Tested on: human B cells
# Settings: 500 μM vs. 0 μM hydrogen peroxide
structure (smiles),measurement,setting,value
OO [hydrogen peroxide],average size of the DNA and label incorporation density (FIG. 8B),average molecule length and labels/100 kb,clear oxidative damage detection in the form of DSBs and SSBs
same,DNA size histograms of treated vs. untreated cells (FIG. 8A),triplicate samples,clear shift to smaller fragment sizes

# Reference: patent publication US20140030705A1, “SYSTEMS AND METHODS FOR ASSESSING BIOMOLECULE CHARACTERISTICS” (BioNano Genomics, Inc., priority 2010, published 2014)
